Patent US10391080B2, “Ketorolac for the treatment of cancer” (Cipla Limited, priority 2016, dated 2019)
pIC50: −log10 of the molar value. Read-outs that look alike come from different tables or passages of the source.

How the values were obtained:
[1] = tested on: ten selected renal cancer cell lines; assay: In vitro 2D assay, CellTiter-Blue Cell Viability Assay, whole panel; format: cell-based, human; conditions: for pIC50: Homo sapiens, geometric mean of ten cell lines, 96 h treatment
Protocol: The objective of this study was to investigate the in-vitro anticancer activity of ketorolac. Antitumor activity was assessed in ten selected renal cancer cell lines by using the CellTiter-Blue Cell Viability Assay. The human renal cancer cell lines RXF 1183L, RXF 1220L, RXF 1781L, RXF 393L, RXF 486L, RXF 786-0, RXF A-498, RXF ACHN, RXF Caki-1 and RXF SN12C were used. RXF 1183L, RXF 1220L, RXF 1781L, RXF 393L and RXF 486L were established at Oncotest from the corresponding human patient-derived xenograft. The cell lines 786-0, A-498, Caki-1 and SN12C were purchased from NCI (National Cancer Institute, Bethesda, Md., USA). ACHN was purchased from ECACC (European Collection of Cell Cultures, Salisbury, UK). Authenticity of cell lines was confirmed at the DSMZ by STR (short tandem repeat) analysis, a PCR based DNA-fingerprinting methodology.
Cell lines were routinely passaged once or twice weekly and maintained in culture for up to 20 passages. All cells were grown at 37° C. in a humidified atmosphere with 5% CO2 in RPMI 1640 medium (25 mM HEPES, with L-glutamine, #FG1385, Biochrom, Berlin, Germany) supplemented with 10% (v/v) fetal calf serum (Sigma, Taufkirchen, Germany) and 0.1 mg/mL gentamicin (Life Technologies, Karlsruhe, Germany).
Ketorolac was dissolved at a concentration of 60 mM in cell culture media. Starting with this stock solution, dilutions were made using cell culture media resulting in final test concentrations of 12000, 7800, 6000, 4200, 3000, 1800, 600, 420, 180, 60 μM. Precipitation was not observed.
The CellTiter-Blue Cell Viability Assay was used according to manufacturer's instructions. Briefly, cells were harvested from exponential phase cultures, counted and plated in 96-well flat-bottom microtiter plates at a cell density of 4,000-12,000 cells/well depending on the cell line's growth rate. […] Following an incubation period of up to four hours, fluorescence (FU) was measured by using the Enspire Multimode Plate Reader (excitation λ=531 nm, emission λ=615 nm). […]

[2] = tested on: tumor cell lines of renal cancer; assay: In vitro 3D combination study, clonogenic assay, both cell lines; format: cell-based; conditions: Homo sapiens, A498; compound alone, colony formation in soft agar, range over RXF 1183L and RXF A-498; read-out: Relative IC50, single agent
Protocol: (§1) The objective of this study was to assess anti-tumor efficacy of ketorolac in combination with sunitinib in a 5×5 matrix combination format against tumor cell lines of renal cancer using a clonogenic assay with image analysis as read-out.
(§2) The clonogenic assay was carried out in a 96 well plate format using ultra low attachment plates. For each test cells were prepared as described above, and assay plates were prepared as follows: each test well contained a layer of semi-solid medium with tumor cells (50 μl), and a second layer of medium supernatant with or without test compounds (100 μl). The cell layer consisted of 3×10^3 to 1×10^4 tumor cells per well, which were seeded in 50 μl/well cell culture medium (IMDM, supplemented with 20% (v/v) fetal calf serum, 0.01% (w/v) gentamicin, and 0.4% (w/v) agar). The soft agar layer was immediately covered with 90 μl of the same culture medium without agar. After 24 h the test compounds were added after serial dilution in IMDM and transfer in cell culture medium, and left on the cells for the duration of the experiment (continuous exposure, 100 μL total drug overlay). Every plate included six untreated control wells and drug-treated groups in a layout as shown above. […] At the time of maximum colony formation, counts were performed with an automatic image analysis system (Celllnsight NXT, Thermo Scientific). […]

RXF 1183L = assay: In vitro 3D combination study, clonogenic assay, Bliss independence; format: cell-based, human; conditions: RXF 1183L cells seeded in soft agar, concentration-dependent
Protocol: as §1, §2

RXF A-498 = assay: as above; format: cell-based, human; conditions: RXF A-498 cells seeded in soft agar, concentration-dependent
Protocol: as §1, §2

Par-4 = assay: PAR-4 activity, Western blot of cell supernatant and lysate; format: cell-based; conditions: normal mouse embryonic fibroblast cells, 25 μM, 18-21 h, cell supernatant, dose dependent
Protocol: Mouse embryonic fibroblast cells were harvested from exponential phase cultures. After a 24 h recovery period to allow the cells to resume exponential growth the cells were treated with 25 μM of ketorolac followed by further 18-21 h of incubation. Induction of Par-4 was checked in the cell supernatant and cell lysate by subjecting the samples to Western blot analysis with antibodies specific for Par-4. The samples were also subjected to SDS/PAGE and Coomassie blue staining to determine albumin levels in serum from the CM as another loading control.

O=C(c1ccccc1)c1ccc2n1CCC2C(=O)O (racemic) [Ketorolac, (±)-5-benzoyl-2,3-dihydro-1H-pyrrolizine-1-carboxylic acid]
pIC50 ([1]; read-out: Absolute IC50, geometric mean): 2.49
pIC50 ([1]; read-out: Relative IC50, geometric mean): 2.43
Activity in all cell lines tested (concentration-effect curves) ([1]; both runs, all cell lines tested): Concentration-dependent activity
pIC50 [2]: 2.75 to 3.23
Colony formation, single agent (RXF 1183L): inhibited colony formation
Colony formation, single agent (RXF A-498): inhibited colony formation
Induction of Par-4 secretion (Par-4): robust Par-4 secretion
